The record followed here is US20240132498A1, “CRYSTALLINE FORMS OF 5-(3,4-DIFLUOROBENZYL)-8-((1R,4R)-4-METHYLCYCLOHEXYL)-6,9-DIOXO-2,5,8-TRIAZASPIRO[3.5]NONANE-2-CARBALDEHYDE” (Cytokinetics, Incorporated, priority 2022, published 2024).

SMILES strings stand for the structures.

Series [1] in a line: Dog single dose pharmacokinetics. The format is in vivo. The settings on record: male, plasma, intravenous, beagle dogs; for Vd: read-out: Vss. The protocol: Non-naïve male beagle dogs (8 months −3 years of age, body weight 8-13 kg) were used in this study. All animals for IV administration had free access to food and water; all animals for PO were fasted overnight prior to dosing and were fed approximately 6 hours after dosing. For the animals in PO group, pentagastrin (6.0 μg/kg, i.m.) was administrated 20 minutes before dosing PO formulation and 1.5 hours after the second pentagastrin dosing. The dosing volume was 0.024 mL/kg, the concentration was 250 μg/mL in DMSO/1 N NaOH/PBS. 10 mL of 0.001 N HCl was used to wash the gavage catheter for each animal. The IV dose solution was prepared in 10% DMA/50% PG/40% HPOCD solution (40% w/v aqueous HPOCD) at a concentration of 1.0 mg/mL. The oral dose suspension was prepared by suspending the compound in 0.5% HPMC/0.1% Tween 80 in distilled water at a concentration of 0.2 mg/mL. Concentrations of IV and PO doses were measured at the end of the study. PK parameters were calculated using the nominal dose values if the measured values were within 20% of the nominal values. Blood samples were collected by venipuncture of peripheral veins except the dosing vein at pre-dose, 5 15, 30 min, 1, 2, 4, 6, 8, 24 and 48 h post-dose. Blood samples were centrifuged and resultant plasma was frozen for bioanalysis. Plasma samples were stored at −80° C. before analysis. Plasma samples were analyzed for compound concentrations using the LC/MS/MS method. Briefly, a 50 μL aliquot of each plasma sample was mixed with 100 μL of acetonitrile that contained an internal standard. The mixture was vortexed and centrifuged. Ten (10) μL of the resulting solution was injected onto a reverse-phase C18 column and the resultant peaks detected on a LC/MS/MS equipped with a turbo ionspray ionization source. Sample concentrations below the limit of quantification (BLQ) were treated as zero for PK calculations. PK parameters were estimated from individual animals using noncompartmental analysis of the concentration-time data (Phoenix WinNonLin software, version 64; Pharsight, Mountain View, CA). The elimination rate constant (k) was calculated as the absolute value of the slope of the linear regression of logarithm (log) of the concentration versus time for the last three data points of the concentration-time profiles. Apparent elimination half-life (t1/2) values were calculated as 1n(2)/k. Area under the concentration-time curve (AUC) values were estimated using linear trapezoidal method. AUCt values were calculated from the dosing time to the last measurable concentration. AUC∞ values were calculated as the sum of the corresponding AUC and the ratio of the last detectable concentration divided by k. Plasma clearance (CL) was calculated from Dose/AUC∞. Mean resident time extrapolated to infinity (MRT∞) was estimated by moment analysis. VSS, was calculated from MRT∞×CL. Maximum concentration (Cmax) and time to reach Cmax (tmax) were recorded as observed. As this was a cross-over study, bioavailability was calculated dAUC∞,po/dAUC∞,iv×100% where dAUC was the dose normalized AUC value from the same animal given IV and PO dose. Compounds tested were prepared in accordance with the synthetic procedures described herein.

Series [2] in a line: Projected single-dose CL and Vss values in humans (allometric scaling). The conditions noted are these: human, allometric scaling of mouse, rat, dog, cynomolgus monkey IV PK. How it is done: Allometric scaling for the prediction of human Clearance and Volume of Distribution was based on interspecies simple allometric scaling of mouse, rat, dog, and cynomolgus monkey intravenous pharmacokinetic parameters (Boxenbaum, J Pharmacokinet Biopharm 10:201-27, 1982). Prediction of human CL was performed by extrapolating pre-clinical species' plasma intravenous clearance. The ‘rule of exponents’ (Mahmood & Balian, Life Sci. 59:579-85, 1996) was examined in this prediction, where it has been proposed that, when the exponent of simple allometry lies between 0.71 and 0.99, a correction factor based on Maximum Life Span (MLP) of this species can be applied and, when the exponent of simple allometry is greater than 1.0, a correction factor based on Brain Weight (BrW) can be applied, or a protein binding correction can be applied when available. In a similar manner, simple allometric scaling was employed to predict human Volume of Distribution. This method has been used successfully for varied drugs (Ward & Smith, Drug Metab Dispos 32:612-19, 2004; McGinnity et al., Curr Drug Metab 8:463-79, 2007).

The nature of series [3]: Monkey single dose pharmacokinetics. The conditions noted are these: male, plasma, iv, Cynomolgus Monkey; for Vd: read-out: Vss. The format is in vivo. The protocol: Non-naïve Male Cynomolgus Monkey (2-5 years of age, body weight 2-5 kg) used in this study were obtained from Topgene Biotechnology. All animals for IV administration had free access to food and water; all animals for PO were fasted overnight prior to dosing and were fed approximately 6 hours after dosing. The IV dose solution was prepared in 10% DMA/50% PG/40% HPOCD solution (40% w/v aqueous HPOCD) at a concentration of 1.0 mg/mL. The oral dose suspension was prepared by suspending the compound in 0.5% HPMC/0.1% Tween 80 in distilled water at a concentration of 0.2 mg/mL. Concentrations of IV and PO doses were measured at the end of the study. PK parameters were calculated using the nominal dose values if the measured values were within 20% of the nominal values. Blood samples were collected by venipuncture of peripheral veins except the dosing vein at pre-dose, 5 15, 30 min, 1, 2, 4, 6, 8, 24 and 48 h post-dose. Blood samples were centrifuged and resultant plasma was frozen for bioanalysis. Plasma samples were stored at −80° C. before analysis. Plasma samples were analyzed for compound concentrations using the LC/MS/MS method. Briefly, a 50 μL aliquot of each plasma sample was mixed with 100 μL of acetonitrile that contained an internal standard. The mixture was vortexed and centrifuged. Ten (10) p L of the resulting solution was injected onto a reverse-phase C18 column and the resultant peaks detected on a LC/MS/MS equipped with a turbo ionspray ionization source. Sample concentrations below the limit of quantification (BLQ) were treated as zero for PK calculations. PK parameters were estimated from individual animals using noncompartmental analysis of the concentration-time data (Phoenix WinNonLin software, version 64; Pharsight, Mountain View, CA). The elimination rate constant (k) was calculated as the absolute value of the slope of the linear regression of logarithm (log) of the concentration versus time for the last three data points of the concentration-time profiles. Apparent elimination half-life (t½) values were calculated as 1n(2)/k. Area under the concentration-time curve (AUC) values were estimated using linear trapezoidal method. AUC values were calculated from the dosing time to the last measurable concentration. AUC∞ values were calculated as the sum of the corresponding AUC and the ratio of the last detectable concentration divided by k. Plasma clearance (CL) was calculated from Dose/AUC.. Mean resident time extrapolated to infinity (MRT∞) was estimated by moment analysis. Vss was calculated from MRT. X CL. Maximum concentration (Cmax) and time to reach Cmax (tmax) were recorded as observed. As this was a cross-over study, bioavailability was calculated dAUC∞,po/dAUC∞,iv ×100% where dAUC was the dose normalized AUC value from the same animal given IV and PO dose. Compounds tested were prepared in accordance with the synthetic procedures described herein.

What is called clearance is the rate of elimination divided by the concentration. The half-life is how long it takes for the measured level to halve.

`O=CN1CC2(C1)C(=O)N(c1ccc(F)cc1F)CC(=O)N2Cc1ccc(Cl)cc1` [Comparator A, 5-(4-chlorobenzyl)-8-(2,4-difluorophenyl)-6,9-dioxo-2,5,8-triazaspiro[3.5]nonane-2-carbaldehyde]: in series [1], the clearance stood at 1.59 mL/min/kg and the Vd was found to be 5.2 L/kg. In addition, the “Projected t1/2” value in series [2] turned out to be 38.7 h.

`O=C1[C@H](C2COC2)N(Cc2ccc(C(F)(F)F)cc2)C(=O)CN1c1ncc(Cl)cc1F` [Comparator C, (S)-1-(5-chloro-3-fluoropyridin-2-yl)-3-(oxetan-3-yl)-4-(4-(trifluoromethyl)benzyl)piperazine-2,5-dione, reference compound]: in series [1], the clearance turned out to be 4.92 mL/min/kg and the Vd was 5.91 L/kg. The “Projected t1/2” value in series [2] is listed as 41 h. Moreover, in series [3], the clearance was determined as 13.8 mL/min/kg, the half-life is 11.6 h and the Vd was determined as 12 L/kg.

With `CC(=O)N1CC2(C1)C(=O)N(c1ccc(C#N)cc1F)CC(=O)N2Cc1ccc(C(F)(F)F)cc1` [Comparator D, 4-(2-acetyl-6,9-dioxo-5-(4-(trifluoromethyl)benzyl)-2,5,8-triazaspiro[3.5]nonan-8-yl)-3-fluorobenzonitrile], in series [1], the clearance stood at 3.55 mL/min/kg and the Vd worked out at 6.7 L/kg. In series [2], the “Projected t1/2” value turned out to be 62 h. Besides, in series [3], the clearance came to 6.92 mL/min/kg, the half-life was 18.1 h and the Vd stood at 12.4 L/kg.

In the case of `O=CN1CC2(C1)C(=O)N([C@H]1CC[C@H](C(F)F)CC1)CC(=O)N2Cc1ccc(C(F)(F)F)cc1` [Comparator E, 8-((1r,4r)-4-(difluoromethyl)cyclohexyl)-6,9-dioxo-5-(4-(trifluoromethyl)benzyl)-2,5,8-triazaspiro[3.5]nonane-2-carbaldehyde], in series [1], the clearance was determined as 1.49 mL/min/kg and the Vd stood at 4.1 L/kg. Moreover, the “Projected t1/2” value in series [2] was determined as 51.7 h. Also, in series [3], the clearance was found to be 3.4 mL/min/kg, the half-life was 16 h and the Vd is 4.35 L/kg.

For the compound `C[C@H]1CC[C@H](N2CC(=O)N(Cc3ccc(F)c(F)c3)C3(CN(C=O)C3)C2=O)CC1` [Compound 1, 5-(3,4-difluorobenzyl)-8-((1r,4r)-4-methylcyclohexyl)-6,9-dioxo-2,5,8-triazaspiro[3.5]nonane-2-carbaldehyde], in series [1], the clearance turned out to be 7.57 mL/min/kg and the Vd came to 4.23 L/kg. Also, the “Projected t1/2” value in series [2] is recorded as 28.3 h. In series [3], the clearance was determined as 11.6 mL/min/kg, the half-life was 9.94 h and the Vd was 8.89 L/kg.
